In the NIST ThermoML archive (doi:10.1021/je900262t):

Columns and labels:
[1] = Liquid; for mass density: 303.15 K, 101.33 kPa, Pycnometric method; for vapor or sublimation pressure: Ebulliometric method (Recirculating still)
[2] = excess molar enthalpy (molar enthalpy of mixing); xn = mol fraction of the nth substance listed; details: 298.15 K, 101 kPa, Liquid

CC(=O)CC(C)C [4-methylpentan-2-one]
Details | mass density [kg/m3]
[1] | 796.33

Details | vapor or sublimation pressure [kPa]
[1], 386.65 K | 95.3

CC(=O)CC(C)C [4-methylpentan-2-one] + CN1CCCC1=O
[2]
Details | excess molar enthalpy [kcal/mol]
x1 = 0.0508 | 0.00545
x1 = 0.1052 | 0.0119
x1 = 0.1632 | 0.0183
x1 = 0.2234 | 0.0242
x1 = 0.2858 | 0.0304
x1 = 0.3815 | 0.04
x1 = 0.4258 | 0.0429
x1 = 0.4787 | 0.0432
x1 = 0.5346 | 0.0415
x1 = 0.599 | 0.0401
x1 = 0.6712 | 0.0362
x1 = 0.7536 | 0.0253
x1 = 0.8369 | 0.0156
x1 = 0.9192 | 0.00581

CN1CCCC1=O [N-methylpyrrolidone]
Details | mass density [kg/m3]
[1] | 1023.4

Details | vapor or sublimation pressure [kPa]
[1], 473.25 K | 95.3

CCC(C)=O [butanone]
Details | mass density [kg/m3]
[1] | 799.71

Details | vapor or sublimation pressure [kPa]
[1], 350.85 K | 95.3

CCC(C)=O [butanone] + CN1CCCC1=O
[2]
Details | excess molar enthalpy [kcal/mol]
x1 = 0.0565 | -0.00626
x1 = 0.1162 | -0.0109
x1 = 0.1812 | -0.0161
x1 = 0.2461 | -0.0239
x1 = 0.3104 | -0.0306
x1 = 0.369 | -0.0355
x1 = 0.4334 | -0.0382
x1 = 0.4841 | -0.04
x1 = 0.5458 | -0.0377
x1 = 0.6781 | -0.0277
x1 = 0.7324 | -0.0206
x1 = 0.7935 | -0.0148
x1 = 0.8525 | -0.0117
x1 = 0.9112 | -0.00593
x1 = 0.9609 | -0.0048

O=C1CCCCC1 [cyclohexanone]
Details | vapor or sublimation pressure [kPa]
[1], 426.25 K | 95.3

O=C1CCCCC1 [cyclohexanone] + CN1CCCC1=O
[2]
Details | excess molar enthalpy [kcal/mol]
x1 = 0.0609 | 0.0043
x1 = 0.1242 | 0.013
x1 = 0.1855 | 0.0201
x1 = 0.2495 | 0.0261
x1 = 0.3151 | 0.0331
x1 = 0.3761 | 0.0391
x1 = 0.4301 | 0.0425
x1 = 0.4527 | 0.0461
x1 = 0.5028 | 0.0484
x1 = 0.5608 | 0.0481
x1 = 0.6249 | 0.0477
x1 = 0.6866 | 0.04
x1 = 0.7491 | 0.0317
x1 = 0.8134 | 0.0237
x1 = 0.8794 | 0.0158
x1 = 0.9445 | 0.00798
